Measured values from publication PMC10601206, “Adaptive laboratory evolution of Rhodococcus rhodochrous DSM6263 for chlorophenol degradation under hypersaline condition” (Microbial Cell Factories, 2023).

Assays:
[1] = target: T1, PheA1A2 (PheA2A1, phenol monooxygenase) (Rhodococcus rhodochrous, UniProt A0ABY1MEQ0); experiment: HPLC of substrate depletion, product by LC-MS; type: cell-based; conditions: whole E. coli BL21(DE3) cells expressing PheA1A2, OD600 15, 100 mM PBS, 0.5 mM 4-chlorophenol; ortho hydroxylation
T1 construct: gene SAMN02745947_03917; both components co-expressed from pET28a in E. coli BL21(DE3), whole cells; with Phenol 2-monooxygenase, flavin reductase component

[2] = target: T1, PheA1A2 (PheA2A1, phenol monooxygenase); experiment: HPLC of substrate depletion; type: cell-based; conditions: whole E. coli BL21(DE3) cells expressing PheA1A2; ortho hydroxylation

T1 sequence (A0ABY1MEQ0 1-537): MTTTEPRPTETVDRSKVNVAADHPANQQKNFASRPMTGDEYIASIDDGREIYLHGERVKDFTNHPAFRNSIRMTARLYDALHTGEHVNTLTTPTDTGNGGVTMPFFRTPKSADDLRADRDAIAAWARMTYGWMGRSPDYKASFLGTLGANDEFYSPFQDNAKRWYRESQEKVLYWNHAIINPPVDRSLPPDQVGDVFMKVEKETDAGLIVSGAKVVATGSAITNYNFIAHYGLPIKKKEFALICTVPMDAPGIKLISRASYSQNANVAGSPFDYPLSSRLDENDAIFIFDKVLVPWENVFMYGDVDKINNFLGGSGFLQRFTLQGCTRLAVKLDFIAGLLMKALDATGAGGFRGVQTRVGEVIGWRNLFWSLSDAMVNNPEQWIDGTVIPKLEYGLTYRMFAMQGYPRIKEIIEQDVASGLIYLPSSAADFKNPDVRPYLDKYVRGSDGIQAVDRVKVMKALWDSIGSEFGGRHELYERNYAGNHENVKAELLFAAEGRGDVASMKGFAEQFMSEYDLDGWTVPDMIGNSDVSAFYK

Structure (SMILES)	HPLC of substrate depletion, product by LC-MS [1]	HPLC of substrate depletion [2]
Oc1ccc(Cl)cc1 [4-chlorophenol]	The ortho hydroxylation enzyme activity to phenol, 4-chlorophenol	
Oc1ccccc1 [phenol]		The ortho hydroxylation enzyme activity to phenol, 4-chlorophenol
